Experimental data: patent EP0309765A2, “1(2H)-Phthalazinones as cytoprotective agents” (FISONS CORPORATION, priority 1987, dated 1989)
Structures can show the parent of a compound that is named as a salt.

tested on: Indomethacin-induced Gastric Lesions; experiment: Reversal of indomethacin-induced gastric lesions (number of macroscopically visible hemorrhagic lesions in the glandular stomach); assay type: in vivo, Male, Sprague-Dawley rats; settings: Rattus norvegicus, ip, 6 h; test compound 50 mg/kg intraperitoneal, 1 hour before 25 mg/kg oral indomethacin; lesions counted six hours after indomethacin; versus saline control group; read-out: Percent Inhibition
Method: The methodology for determining the degree of inhibition of gastric lesion formation by the compounds of formula 1 is described below and the results, expressed as percent inhibition, are given in Table 1. Reversal of Indomethacin-induced Gastric Lesions Male, Sprague-Dawley rats weighing 200-225 grams were fasted 24 hours prior to the intraperitoneal administration of the test compounds. The standard screening dosed employed was either 100 or 50 mg/kg. One hour later, the rats were orally administered 25 mg/kg of indomethacin. Both indomethacin and the compounds were suspended in 1% Clearjel ("Instant Clearjel®", a food grade pregelatinized starch from National Starch and Chemical Corporation, New York, N.Y.) or .85% NaCl saline for dosing. Six hours after indomethacin administration, the animals were sacrificed, their stomachs removed, opened along the line of greater curvature, and rinsed with distilled water. The number of macroscopically visible hemmorhagic lesions (dark brown discolorations) in the glandular portion of the stomach was enumerated. […] [table]

| SMILES | inhibition in vivo at 50 mg/kg |
| --- | --- |
| COc1ccc(/C=C/c2ccc3c(=O)n(CCCN4CCCCC4)ncc3c2)cc1 [Example 2, Trans-6-[2-(4-methoxyphenyl)ethenyl]-2-(3-piperidinopropyl)-phthalazin-1(2H)-one hydrobromide] | 91% |
| COc1ccc(/C=C/c2ccc3c(=O)n(CCN4CCOCC4)ncc3c2)cc1 [Example 4, Trans-6-[2-(4-methoxyphenyl)ethenyl]-2-(2-morpholinoethyl)-phthalazin-1(2H)-one hydrobromide] | 7% |
| COc1ccc(/C=C/c2ccc3c(=O)n(CCCN4CCNCC4)ncc3c2)cc1 [Example 5, Trans-6-[2-(4-methoxyphenyl)ethenyl]-2-[3-(1-piperazino)-propyl]phthalazin-1(2H)-one] | 89% |
| CNCCCn1ncc2cc(/C=C/c3ccc(OC)cc3)ccc2c1=O [Example 7, Trans-6-[2-(4-methoxyphenyl)ethenyl]-2-[3-(methylamino)-propyl]phthalazin-1(2H)-one hydrobromide] | 79% |
| COc1ccc(/C=C/c2ccc3c(=O)n(CCCN)ncc3c2)cc1 [Example 8, Trans-6-[2-(4-methoxyphenyl)ethenyl]-2-(3-aminopropyl)-phthalazin-1(2H)-one hydrobromide] | 96% |
| COc1ccc(/C=C/c2ccc3c(=O)n(CCCCN(C)C)ncc3c2)cc1 [Example 9, Trans-6-[2-(4-methoxyphenyl)ethenyl]-2-[4-(dimethylamino)-butyl]phthalazin-1(2H)-one hydrobromide] | 85% |
| COc1ccc(/C=C\c2ccc3c(=O)n(CCCN(C)C)ncc3c2)cc1 [Example 10, CIs-6-[2-(4-methoxyphenyl)ethenyl]-2-[3-(dimethylamino)propyl]phthalazin-1(2H)-one cyclohexylsulfamate] | 61% |
| COc1ccc(/C=C/c2ccc3c(=O)n(CCCN(C)C)ncc3c2)cc1 [Example 13, Trans-6-[2-(4-methoxyphenyl)ethenyl]-2-[3-dimethylamino)-propyl]phthalazin-1(2H)-one hydrobromide] | 99% |
| CN(C)CCCn1ncc2cc(/C=C/c3ccc(O)cc3)ccc2c1=O [Example 14, Trans-6-[2-(4-hydroxyphenyl)ethenyl]-2-[3-(dimethylamino)-propyl]phthalazin-1(2H)-one hydrochloride] | 96.3% |
| CN(C)CCCn1ncc2cc(/C=C/c3ccccc3)ccc2c1=O [Example 16, Trans-2-[3-(dimethylamino)propyl]-6-(2-phenylethenyl)-1(2H)-phthalazinone] | 80% |

same assay, conditions: Rattus norvegicus, ip, 6 h; test compound 100 mg/kg intraperitoneal, 1 hour before 25 mg/kg oral indomethacin; lesions counted six hours after indomethacin; versus saline control group; read-out: Percent Inhibition

| SMILES | inhibition in vivo at 100 mg/kg |
| --- | --- |
| COc1ccc(/C=C/c2ccc3c(=O)n(CCN(C(C)C)C(C)C)ncc3c2)cc1 [Example 1, Trans-6-[2-(4-methoxyphenyl)ethenyl]-2-[2-(diisopropylamino)-ethyl]phthalazin-1(2H)-one hydrobromide] | 92% |
| COc1ccc(/C=C/c2ccc3c(=O)n(CCN(C)C)ncc3c2)cc1 [Example 3, Trans-6-[2-(4-methoxyphenyl)ethenyl]-2-[2-(dimethylamino)-ethyl]phthalazin-1(2H)-one hydrobromide] | 65% |
| COc1ccc(/C=C/c2ccc3c(=O)n(C4CCN(C)CC4)ncc3c2)cc1 [Example 6, Trans-6-[2-(4-methoxyphenyl)ethenyl]-2-(1-methyl-4-piperidinyl)phthalazin-1(2H)-one] | 63% |
| O=c1[nH]ncc2cc(/C=C/c3ccc(O)cc3)ccc12 [Example 11, Trans-6-[2-(4-Hydroxyphenyl)ethenyl]-phthalazin-1(2H)-one] | 45% |
| O=c1[nH]ncc2cc(/C=C/c3ccccc3)ccc12 [Example 12, Trans-6-[2-phenylethenyl]phthalazin-1(2H)-one] | 43% |
| CN(C)CCn1ncc2cc(/C=C/c3ccc(O)cc3)ccc2c1=O [Example 15, Trans-6-[2-(4-hydroxyphenyl)ethenyl]-2-[2-(dimethylamino)-ethyl]-1(2H)-phthalazinone hydrochloride] | 7.2% |
| O=c1c2ccc(/C=C/c3ccccc3)cc2cnn1CCO [Example 17, Trans-2-(2-hydroxyethyl)-6-(2-phenylethenyl)-1(2H)-phthalazinone] | 59% |
